Columns and labels:
Human TLR7/8 = test: Human PBMC cell-based assay, TLR7/8 stimulus (RNA-Ig), cytokine ELISA; details: primary human PBMC assay, TLR7/8 potency; ligand not given; read-out: Human PBMCs IC50
Protocol: Human PBMC Cell-Based Assay. Human peripheral blood mononuclear cells (PBMC) were isolated from freshly-drawn heparinized (10 USP units/ml, Hospira, Lakeforest, Ill.) healthy donor whole blood by density gradient (Histopaque® 1077, Sigma, Inc., St. Louis, Mo.). Briefly, 25 ml blood was diluted with 15 ml PBS (without Ca^2+, Mg^2+) in a 50 ml conical tube, and 12 ml Histopaque was underlaid using a spinal needle. Tubes were centrifuged for 45 minutes at 1200 rpm (350×g), and PBMC were collected from the buffy coat. Cells were then washed twice in PBS, and red blood cells were lysed by suspension in 5 ml ammonium chloride solution (1× Red Blood Cell Lysis Buffer, eBioscience) for 5 minutes at room temperature. After a final wash in PBS, PBMC were resuspended at a final concentration of 2×10^6/ml in RPMI-1640 media with L-glutamine (Invitrogen) and supplemented with 25 mM HEPES (Mediatech, Inc, Manassas Va.), 10% fetal bovine serum (HyClone, Logan, Utah), and Penicillin-Streptomycin-Glutamine (Mediatech) and plated at 100 ul/well (2×10^5 cells/well) in tissue culture treated 96-well plates (Falcon).
Antagonist compounds solubilized and serial diluted in 100% DMSO were added in triplicate to cells to yield a final concentration of 0.1% DMSO (v/v). Hydroxychloroquine (Acros Organics) solubilized and serial diluted in PBS was added in triplicate to cells. PBMC were incubated with antagonist compounds or HCQ for 30 minutes at 37° C., 5% CO2 before adding various TLR agonist reagents in 100 ul complete media per well as follows (final concentrations indicated): R848 (Resiquimod; GLSynthesis, Worcester, Mass.) at 1 uM for TLR7 and TLR8, LPS (Sigma) at 10 ng/ml for TLR4, and CpG-2216 (InvivoGen) at 5 ug/ml for TLR9. To prepare a TLR7/8 agonist that mimics RNA-containing auto-antibody immune complexes in lupus patients, a 26-mer RNA with a sequence derived from human U1 snRNA stem loop IV [(sequence: […]-[…] (SEQ ID NO: 2) with phosphorothioate backbone] was synthesized (Dharmacon, Inc., Lafayette, Colo.), which has been shown previously to be a potent TLR7 and TLR8 agonist. This RNA molecule was diluted to 2.5 μM in serum-free RPMI, and mouse anti-human single stranded DNA monoclonal antibody (MAB3034, Millipore, Inc., Billerica, Mass.), which also cross-reacts with RNA, was added at a 1:25 dilution or at 1 ug/ml. The resulting “RNA-Ig” stimulus was incubated at room temperature for 15-30 minutes before adding to cells. PBMC were incubated with the various TLR agonists for 20 hours at 37° C., 5% CO2. Cell culture supernatants were collected, and levels of various human cytokines were assessed as indicated by standard ELISA procedure according to the manufacturer's recommended protocol (BD Biosciences, Inc., San Diego, Calif.). In a subsequent assay (Table 6) the ability of ER-899742 to block stimulation of normal PBMC by various TLR7/8 ligands, but not DNA-mediated activation of TLR9, was examined. In this assay cells were plated at 1×10^5 cells/well in 100 ul in 96-well plates.

mouse TLR7 = target: T1, mouse TLR7 (Mus musculus, UniProt P58681); test: Short-term in vivo (STIV) assay: oral dosing, R848 s.c., plasma IL-6; design: female BALB/c mice (Jackson Labs, Bar Harbor, Me.) were dosed by oral gavage; tissue Jackson Labs; host or cells: living female BALB/c mice; plasma IL-6 after s.c. R848
T1 sequence (P58681 27-1050): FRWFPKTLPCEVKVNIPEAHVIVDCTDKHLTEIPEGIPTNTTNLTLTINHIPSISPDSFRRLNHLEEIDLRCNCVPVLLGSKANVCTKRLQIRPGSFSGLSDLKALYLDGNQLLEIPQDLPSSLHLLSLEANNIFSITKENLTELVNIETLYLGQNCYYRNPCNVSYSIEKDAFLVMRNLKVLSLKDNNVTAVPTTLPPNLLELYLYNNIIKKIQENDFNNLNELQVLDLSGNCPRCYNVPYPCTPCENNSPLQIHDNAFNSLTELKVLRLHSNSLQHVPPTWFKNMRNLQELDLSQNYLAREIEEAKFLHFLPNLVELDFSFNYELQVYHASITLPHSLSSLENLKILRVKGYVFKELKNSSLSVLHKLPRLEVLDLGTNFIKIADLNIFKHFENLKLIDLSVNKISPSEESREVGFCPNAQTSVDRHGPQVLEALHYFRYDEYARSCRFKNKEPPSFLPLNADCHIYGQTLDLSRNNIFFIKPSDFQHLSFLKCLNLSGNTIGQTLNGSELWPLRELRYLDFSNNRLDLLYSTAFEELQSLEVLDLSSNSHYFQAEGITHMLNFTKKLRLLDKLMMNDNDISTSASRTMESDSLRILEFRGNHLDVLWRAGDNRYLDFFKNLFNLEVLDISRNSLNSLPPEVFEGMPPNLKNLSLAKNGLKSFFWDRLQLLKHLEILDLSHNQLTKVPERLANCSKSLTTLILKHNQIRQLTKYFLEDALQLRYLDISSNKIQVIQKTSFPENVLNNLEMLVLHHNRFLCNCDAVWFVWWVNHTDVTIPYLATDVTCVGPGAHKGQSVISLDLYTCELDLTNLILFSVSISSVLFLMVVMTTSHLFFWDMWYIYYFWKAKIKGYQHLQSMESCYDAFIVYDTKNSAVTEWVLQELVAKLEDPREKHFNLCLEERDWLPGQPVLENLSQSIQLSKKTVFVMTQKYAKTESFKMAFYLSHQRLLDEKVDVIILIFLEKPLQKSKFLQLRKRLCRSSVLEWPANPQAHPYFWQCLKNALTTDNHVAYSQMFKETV
Protocol: Figure Legend: Female BALB/c mice were dosed by oral gavage with Vehicle alone (0.5% aqueous methyl-cellulose) or compound formulated in Vehicle at 33 mg/kg, 100 mg/kg or 300 mg/kg. […] (FIG. 1A).
Short-term in vivo (STIV) assay: To assess compound potency in vivo against mouse TLR7, a short-term in vivo (STIV) assay was utilized. Briefly, mice were orally dosed with compounds and at various time points afterwards were injected subcutaneously with agonist R848 to stimulate TLR7. The plasma IL-6 level following R848 stimulation was then measured by ELISA to assess compound potency and duration-of-action.
Short-term in vivo (STIV) assay. Six to eight week old female BALB/c mice (Jackson Labs, Bar Harbor, Me.) were dosed by oral gavage in 200 ul volume with antagonist compounds formulated in 0.5% aqueous methyl-cellulose (Sigma, St. Louis, Mo.). At various time points afterwards, mice were injected subcutaneously (s.c.) in 100 ul volume with 15 ug R848 (Resiquimod; GLSynthesis, Worcester, Mass.) to stimulate TLR7.

| Structure (SMILES) | IC50 (Human TLR7/8) | % Suppression vs. Vehicle (mouse TLR7; 3 h, 33 mg/kg) | % Suppression vs. Vehicle (mouse TLR7; 3 h, 100 mg/kg) | % Suppression vs. Vehicle (mouse TLR7; 6 h, 33 mg/kg) | % Suppression vs. Vehicle (mouse TLR7; 6 h, 100 mg/kg) | other results |
| --- | --- | --- | --- | --- | --- | --- |
| C[C@@H]1CN(c2ccc(C#N)c3ncccc23)C[C@H](CNc2cc(-c3ccccc3)ccn2)O1 [ER-887252] | 2 nM | – | – | – | – | – |
| C[C@@H]1CN(c2ccc(C#N)c3ncccc23)C[C@H](CNC2CCCCC2)O1 [ER-886611] | – | 90% | 100% | 90% | 100% | % Suppression vs. Vehicle (mouse TLR7; 3 h after oral dose, 11 mg/kg): 53%; % Suppression vs. Vehicle (mouse TLR7; 6 h, 11 mg/kg): 0%; % Suppression vs. Vehicle (mouse TLR7; 19 h, 11 mg/kg): 19%; % Suppression vs. Vehicle (mouse TLR7; 19 h, 33 mg/kg): 0%; % Suppression vs. Vehicle (mouse TLR7; 19 h, 100 mg/kg): 100% |
| C[C@@H]1CN(c2ccc(C#N)c3ncccc23)C[C@H](CNc2cnccn2)O1 [ER-888896] | 50 nM | – | – | – | – | – |
| C[C@@H]1CN(c2ccc(C#N)c3ncccc23)C[C@H](CN2CCC(NS(=O)(=O)c3ccccc3)CC2)O1 [ER-894149] | 31 nM | – | – | – | – | – |
| CC1CN(c2ccc(C#N)c3ncccc23)CC(C(=O)NCCC(F)(F)F)O1 (centres unmarked) [ER-898565] | 198 nM | – | – | – | – | – |
| CCN1CCC(NC(=O)[C@H]2CN(c3ccc(C#N)c4ncccc34)C[C@@H](C)O2)CC1 [ER-899626] | 1 nM | – | – | – | – | – |
| CC1CN(c2ccc(C#N)c3ncccc23)CC(CNc2ncccn2)O1 (centres unmarked) [ER-886787] | 76 nM | – | – | – | – | – |
| Cc1cc(CN2CCC(N3CCCCC3)CC2)cc(-c2ccc(C#N)c3ncccc23)c1 [ER-889504] | 2 nM | – | – | – | – | – |
| C[C@@H]1CN(c2ccc(C#N)c3ncccc23)C[C@H](C(=O)NC2(C)CCN(C)CC2)O1 [ER-899835] | – | – | – | – | 99% | % Suppression vs. Vehicle (mouse TLR7; 13 h, 100 mg/kg): 79% |
| COc1cccnc1NC[C@H]1CN(c2ccc(C#N)c3ncccc23)C[C@@H](C)O1 [ER-886948] | – | 46% | 89% | 35% | 44% | % Suppression vs. Vehicle (mouse TLR7; 3 h, 300 mg/kg): 100%; % Suppression vs. Vehicle (mouse TLR7; 6 h, 300 mg/kg): 81%; % Suppression vs. Vehicle (mouse TLR7; 19 h, 33 mg/kg): 0%; % Suppression vs. Vehicle (mouse TLR7; 19 h, 100 mg/kg): 5%; % Suppression vs. Vehicle (mouse TLR7; 19 h, 300 mg/kg): 49% |
| C[C@@H]1CN(c2ccc(C#N)c3ncccc23)C[C@H](CNc2ccccn2)O1 [ER-886788] | – | 0% | 0% | 0% | 27% | % Suppression vs. Vehicle (mouse TLR7; 3 h, 300 mg/kg): 24%; % Suppression vs. Vehicle (mouse TLR7; 6 h, 300 mg/kg): 26%; % Suppression vs. Vehicle (mouse TLR7; 19 h, 33 mg/kg): 0%; % Suppression vs. Vehicle (mouse TLR7; 19 h, 100 mg/kg): 17%; % Suppression vs. Vehicle (mouse TLR7; 19 h, 300 mg/kg): 2% |
| CC(C)C(=O)NC1CN(C[C@H]2CN(c3ccc(C#N)c4ncccc34)C[C@@H](C)O2)C1 [ER-894206] | – | 96% | – | 85% | 98% | % Suppression vs. Vehicle (mouse TLR7; 13 h, 33 mg/kg): 42%; % Suppression vs. Vehicle (mouse TLR7; 13 h, 100 mg/kg): 77% |
| C[C@@H]1CN(c2ccc(C#N)c3ncccc23)C[C@H](C(=O)NC2(C)CCNCC2)O1 [ER-899718] | – | – | – | – | 74% | % Suppression vs. Vehicle (mouse TLR7; 13 h, 100 mg/kg): 51% |
| C[C@@H]1CN(c2ccc(C#N)c3ncccc23)C[C@H](CN2CCC(C(N)=O)CC2)O1 [ER-888320] | – | – | 100% | 78% | 94% | % Suppression vs. Vehicle (mouse TLR7; 13 h, 33 mg/kg): 9%; % Suppression vs. Vehicle (mouse TLR7; 13 h, 100 mg/kg): 31% |
| C[C@@H]1CN(c2ccc(C#N)c3ncccc23)C[C@H](CN2CCC(N3CCN(C)CC3)CC2)O1 [ER-890223] | – | 93% | 99% | 82% | 99% | % Suppression vs. Vehicle (mouse TLR7; 19 h, 100 mg/kg): 88% |
